Test results from patent US20260327240A1, “1,4-CINEOLE DERIVATIVE AND INTERMEDIATE THEREOF, HERBICIDE CONTAINING SAID DERIVATIVE AS ACTIVE INGREDIENT, METHOD FOR USING HERBICIDE, AND METHOD FOR PREPARING AGROCHEMICAL COMPOSITION” (HOKKO CHEMICAL INDUSTRY CO., LTD., priority 2023, published 2026).

Key:
Assay type in all cases: in vivo
Lindemia pyxidaria = experiment: Test Example 2: herbicidal effect test by application during growth period of paddy rice; conditions: 7 days after sowing, 120 g per 10 ares, 14 days after application, read-out: weed inhibition rate
Experimental: (§1) Herbicidal Effect Test by Application During Growth Period of Paddy Rice
(§2) Wagner pots with an area of 1/10,000 […] were filled with paddy soil, followed by addition of water and incorporation of chemical fertilizer (N:P:K=16:16:16), after which puddling was performed. After that, seeds of Echinochloa crus-galli var. formosensis, broad-leaved weeds (Lindemia pyxidaria, and Monochoria vaginalis), and Scirpus juncoides were sown at a depth of 0 cm to 1 cm, 30 seeds each. Immediately after sowing, the pots were flooded and a water depth of approximately 3 cm was maintained. Subsequent management was conducted in a glass greenhouse. Seven days after sowing, an emulsifiable concentrate prepared according to Formulation Example 5 using the compound shown below was diluted with water, and a specified amount of the diluted solution was applied by dropper. The amount of the active ingredient to be applied was equivalent to 120 g per 10 ares. The test was conducted in duplicate for each chemical concentration group, and the herbicidal effect was evaluated 14 days after chemical application using the same criteria as in Test Example 1.

[1] = system: Echinochloa crus-galli var. formosensis; experiment: Test Example 1: herbicidal effect test by soil application in paddy rice; conditions: 120 g per 10 ares, 14 days after application; for inhibition at 1200 g/ha: Echinochloa crus-galli, 336 h, read-out: weed inhibition rate
Experimental: (§3) Herbicidal Effect Test by Soil Application in Paddy Rice
as §2, with “(Lindernia pyxidaria” for “(Lindemia pyxidaria,”, “Immediately thereafter,” for “Seven days after sowing,”, “ares.” for “ares. The test was conducted in duplicate for each chemical concentration group, and the herbicidal effect was evaluated 14 days after chemical application using the same criteria as in Test Example 1.”
(§4) The present test was conducted in duplicate for each chemical concentration group, and the weed inhibition rate (%) was determined 14 days after chemical application using the following formula (Math. 1).

Scirpus juncoides [2] = experiment: as above; conditions: 120 g per 10 ares, 14 days after application
Experimental: as §3
as §2, with “(Lindernia pyxidaria” for “(Lindemia pyxidaria,”, “Immediately thereafter,” for “Seven days after sowing,”, “ares.” for “ares. The test was conducted in duplicate for each chemical concentration group, and the herbicidal effect was evaluated 14 days after chemical application using the same criteria as in Test Example 1.”
as §4

[3] = system: Echinochloa crus-galli var. formosensis; experiment: Test Example 2: herbicidal effect test by application during growth period of paddy rice; conditions: 7 days after sowing, 120 g per 10 ares, 14 days after application; for inhibition at 1200 g/ha: Echinochloa crus-galli, read-out: weed inhibition rate
Experimental: as §1, §2

Scirpus juncoides [4] = experiment: as above; conditions: 7 days after sowing, 120 g per 10 ares, 14 days after application
Experimental: as §1, §2

Digitaria ciliaris [5] = experiment: Test Example 3: herbicidal effect test by soil application in upland field; conditions: 1 day after sowing, 120 g per 10 ares, 14 days after application; for inhibition at 1200 g/ha: Digitaria ciliaris, read-out: weed inhibition rate
Experimental: (§5) Herbicidal Effect Test by Soil Application in Upland Field
(§6) Pots with an area of 36 cm^2 were filled with upland soil (alluvial loam), twenty seeds each of weeds of Digitaria ciliaris, Echinochloa crus-galli, Chenopodium album, and Amaranthus viridis were uniformly mixed with the top 1 cm layer of soil and the surface was lightly pressed down. One day after sowing, an emulsifiable concentrate prepared according to Formulation Example 5 using the compound shown below was diluted with water, and the diluted solution was sprayed onto the soil surface at a rate of 100 liters per 10 ares. The amount of the active ingredient to be applied was equivalent to 120 g per 10 ares. Fourteen days after chemical application, the herbicidal effect was evaluated according to the same criteria as in Test Example 1.

Echinochloa crus-galli [6] = experiment: as above; conditions: 1 day after sowing, 120 g per 10 ares, 14 days after application; for inhibition at 1200 g/ha: Echinochloa crus-galli, read-out: weed inhibition rate
Experimental: as §5, §6

Digitaria ciliaris [7] = experiment: Test Example 4: herbicidal effect test by stem and leaf treatment in upland field; conditions: 7 days after sowing, 120 g per 10 ares, 14 days after application; for inhibition at 1200 g/ha: Digitaria ciliaris, read-out: weed inhibition rate
Experimental: (§7) Herbicidal Effect Test by Stem and Leaf Treatment in Upland Field
as §6, with “Seven days” for “One day”

Echinochloa crus-galli [8] = experiment: as above; conditions: 7 days after sowing, 120 g per 10 ares, 14 days after application; for inhibition at 1200 g/ha: Echinochloa crus-galli, read-out: weed inhibition rate
Experimental: as §7
as §6, with “Seven days” for “One day”

## Cc1ccccc1CO[C@@H]1C[C@]2(C(C)C)O[C@@]1(C)C[C@@H]2F [1-2, (1R,2S,4S,5R)-2-fluoro-1-isopropyl-4-methyl-5-((2-methylbenzyl)oxy)-7-oxabicyclo[2.2.1]heptane]
Lindemia pyxidaria
  inhibition at 1200 g/ha: ≥ 80%

## CC(C)[C@]12C[C@@H](OCc3ccccc3F)[C@](C)(C[C@@H]1Br)O2 [1-19, (1S,2R,4R,5S)-5-bromo-2-[(2-fluorophenyl)methoxy]-1-methyl-4-isopropyl-7-oxabicyclo[2.2.1]heptane]
Lindemia pyxidaria
  inhibition at 1200 g/ha: ≥ 80%

## CC(=O)O[C@H]1C[C@]2(C)O[C@@]1(C(C)C)C[C@H]2OCc1ccccc1F [1-480, [(1R,2S,4S,5R)-5-[(2-fluorophenyl)methoxy]-4-methyl-1-isopropyl-7-oxabicyclo[2.2.1]heptan-2-yl]acetate]
[1]
  weed inhibition rate: ≥ 80%
Scirpus juncoides [2]
  weed inhibition rate: ≥ 80%
[3]
  weed inhibition rate: ≥ 80%
Scirpus juncoides [4]
  weed inhibition rate: ≥ 80%
Digitaria ciliaris [5]
  weed inhibition rate: ≥ 80%
Echinochloa crus-galli [6]
  weed inhibition rate: ≥ 80%
Digitaria ciliaris [7]
  weed inhibition rate: ≥ 80%
Echinochloa crus-galli [8]
  weed inhibition rate: ≥ 80%

## CC(C)=CCO[C@@H]1C[C@]2(C(C)C)O[C@@]1(C)C[C@@H]2Br [1-672, (1S,2R,4R,5S)-5-bromo-1-methyl-2-(3-methylbut-2-enoxy)-4-isopropyl-7-oxabicyclo[2.2.1]heptane]
Lindemia pyxidaria
  inhibition at 1200 g/ha: ≥ 80%

## CC(C)[C@]12C[C@@H](OCc3cccc(C(F)(F)F)c3)[C@](C)(C[C@@H]1Br)O2 [1-701, (1S,2R,4R,5S)-5-bromo-1-methyl-4-isopropyl-2-[[3-(trifluoromethyl)phenyl]methoxy]-7-oxabicyclo[2.2.1]heptane]
[1]
  inhibition at 1200 g/ha: ≥ 80%
[3]
  inhibition at 1200 g/ha: ≥ 80%
Digitaria ciliaris [5]
  inhibition at 1200 g/ha: ≥ 80%
Echinochloa crus-galli [6]
  inhibition at 1200 g/ha: ≥ 80%
Digitaria ciliaris [7]
  inhibition at 1200 g/ha: ≥ 80%
Echinochloa crus-galli [8]
  inhibition at 1200 g/ha: ≥ 80%

## CC(C)[C@]12C[C@@H](OCc3ccccc3C#N)[C@](C)(C[C@@H]1Br)O2 [1-703, 2-[[(1S,2R,4R,5S)-5-bromo-1-methyl-4-isopropyl-7-oxabicyclo[2.2.1]heptan-2-yl]oxymethyl]benzonitrile]
Lindemia pyxidaria
  inhibition at 1200 g/ha: ≥ 80%

## CC(C)[C@]12C[C@@H](OCc3ccccc3F)[C@](C)(C[C@H]1OCC1CC1)O2 [1-921, (1S,2R,4R,5R)-5-(cyclopropylmethoxy)-2-[(2-fluorophenyl)methoxy]-1-methyl-4-isopropyl-7-oxabicyclo[2.2.1]heptane]
Lindemia pyxidaria
  inhibition at 1200 g/ha: ≥ 80%

## C=CCO[C@@H]1C[C@]2(C)O[C@@]1(C(C)C)C[C@H]2OCc1ccccc1F [1-930, (1S,2R,4R,5R)-2-[(2-fluorophenyl)methoxy]-1-methyl-4-isopropyl-5-prop-2-enoxy-7-oxabicyclo[2.2.1]heptane]
Lindemia pyxidaria
  inhibition at 1200 g/ha: ≥ 80%

## C#CCO[C@@H]1C[C@]2(C)O[C@@]1(C(C)C)C[C@H]2OCc1ccccc1F [1-931, (1S,2R,4R,5R)-2-[(2-fluorophenyl)methoxy]-1-methyl-4-isopropyl-5-prop-2-ynoxy-7-oxabicyclo[2.2.1]heptane]
Lindemia pyxidaria
  inhibition at 1200 g/ha: ≥ 80%

## COC1(OC)C[C@]2(C)O[C@@]1(C(C)C)C[C@H]2OCc1ccccc1F [1-935, (1R,4S,5R)-5-((2-fluorobenzyl)oxy)-1-isopropyl-2,2-dimethoxy-4-methyl-7-oxabicyclo[2.2.1]heptane]
Lindemia pyxidaria
  inhibition at 1200 g/ha: ≥ 80%

## CC(C)[C@]12C[C@@H](OCc3ccccc3F)[C@](C)(C[C@@H]1OCc1ccccc1)O2 [1-1606, (1S,2R,4R,5S)-2-[(2-fluorophenyl)methoxy]-1-methyl-5-phenylmethoxy-4-isopropyl-7-oxabicyclo[2.2.1]heptane]
[1]
  inhibition at 1200 g/ha: ≥ 80%
[3]
  inhibition at 1200 g/ha: ≥ 80%
Digitaria ciliaris [5]
  inhibition at 1200 g/ha: ≥ 80%
Echinochloa crus-galli [6]
  inhibition at 1200 g/ha: ≥ 80%
Digitaria ciliaris [7]
  inhibition at 1200 g/ha: ≥ 80%
Echinochloa crus-galli [8]
  inhibition at 1200 g/ha: ≥ 80%

## Cc1ccccc1CO[C@@H]1C[C@]2(C(C)C)O[C@@]1(C)CC2=O [2-3, (1R,4S,5R)-1-isopropyl-4-methyl-5-((2-methylbenzyl)oxy)-7-oxabicyclo[2.2.1]heptan-2-one]
Lindemia pyxidaria
  inhibition at 1200 g/ha: ≥ 80%

## Cc1cccc(C)c1CO[C@@H]1C[C@]2(C(C)C)O[C@@]1(C)CC2=O [2-5, (1R,4S,5R)-5-((2,6-dimethylbenzyl)oxy)-1-isopropyl-4-methyl-7-oxabicyclo[2.2.1]heptan-2-one]
Lindemia pyxidaria
  inhibition at 1200 g/ha: ≥ 80%

## CC(C)[C@]12C[C@@H](OCc3ccccc3Cl)[C@](C)(CC1=O)O2 [2-11, (1R,4S,5R)-5-((2-chlorobenzyl)oxy)-1-isopropyl-4-methyl-7-oxabicyclo[2.2.1]heptan-2-one]
Lindemia pyxidaria
  inhibition at 1200 g/ha: ≥ 80%

## CC(C)[C@]12C[C@@H](OCc3c(F)cccc3F)[C@](C)(CC1=O)O2 [2-20, (1R,4S,5R)-5-((2,6-difluorobenzyl)oxy)-1-isopropyl-4-methyl-7-oxabicyclo[2.2.1]heptan-2-one]
Lindemia pyxidaria
  inhibition at 1200 g/ha: ≥ 80%

## C=C1C[C@]2(C)O[C@@]1(C(C)C)C[C@H]2OCc1ccccc1C [2-72, (1R,4S,5R)-1-isopropyl-4-methyl-5-((2-methylbenzyl)oxy)-2-methylene-7-oxabicyclo[2.2.1]heptane]
Lindemia pyxidaria
  inhibition at 1200 g/ha: ≥ 80%

## C=C1C[C@]2(C)O[C@@]1(C(C)C)C[C@H]2OCc1ccccc1F [2-88, (1R,4S,5R)-5-((2-fluorobenzyl)oxy)-1-isopropyl-4-methyl-2-methylene-7-oxabicyclo[2.2.1]heptane]
Lindemia pyxidaria
  inhibition at 1200 g/ha: ≥ 80%

## CC(C)[C@]12C[C@@H](OCc3ccc(F)cc3)[C@](C)(CC1=O)O2 [2-349, (1R,4S,5R)-5-((4-fluorobenzyl)oxy)-1-isopropyl-4-methyl-7-oxabicyclo[2.2.1]heptan-2-one]
Lindemia pyxidaria
  inhibition at 1200 g/ha: ≥ 80%

## CC(C)[C@]12C[C@@H](OCc3cccc(F)c3)[C@](C)(CC1=O)O2 [2-351, (1R,4S,5R)-5-((3-fluorobenzyl)oxy)-1-isopropyl-4-methyl-7-oxabicyclo[2.2.1]heptan-2-one]
Lindemia pyxidaria
  inhibition at 1200 g/ha: ≥ 80%

## Cc1cccc(CO[C@@H]2C[C@]3(C(C)C)O[C@@]2(C)CC3=O)c1 [2-352, (1R,4S,5R)-1-isopropyl-4-methyl-5-((3-methylbenzyl)oxy)-7-oxabicyclo[2.2.1]heptan-2-one]
Lindemia pyxidaria
  inhibition at 1200 g/ha: ≥ 80%

## CC(C)[C@]12C=C[C@](C)(O1)[C@H](OCc1ccccc1F)C2 [3-5, (1R,4S,5R)-5-[(2-fluorophenyl)methoxy]-4-methyl-1-isopropyl-7-oxabicyclo[2.2.1]hept-2-ene]
Lindemia pyxidaria
  inhibition at 1200 g/ha: ≥ 80%
